We go through 19 compounds from patent US20140171417A1, “TRICYCLIC COMPOUNDS” (NOVARTIS AG, priority 2012, published 2014).

Usually IC50 stands for the concentration needed to halve the response being measured. A higher IC50 goes with weaker potency in that assay.

For this assay, the target named is T1, CFTR (Homo sapiens, UniProt P13569).
T1 construct: expressed in transfected cells
T1 sequence (P13569 whole entry): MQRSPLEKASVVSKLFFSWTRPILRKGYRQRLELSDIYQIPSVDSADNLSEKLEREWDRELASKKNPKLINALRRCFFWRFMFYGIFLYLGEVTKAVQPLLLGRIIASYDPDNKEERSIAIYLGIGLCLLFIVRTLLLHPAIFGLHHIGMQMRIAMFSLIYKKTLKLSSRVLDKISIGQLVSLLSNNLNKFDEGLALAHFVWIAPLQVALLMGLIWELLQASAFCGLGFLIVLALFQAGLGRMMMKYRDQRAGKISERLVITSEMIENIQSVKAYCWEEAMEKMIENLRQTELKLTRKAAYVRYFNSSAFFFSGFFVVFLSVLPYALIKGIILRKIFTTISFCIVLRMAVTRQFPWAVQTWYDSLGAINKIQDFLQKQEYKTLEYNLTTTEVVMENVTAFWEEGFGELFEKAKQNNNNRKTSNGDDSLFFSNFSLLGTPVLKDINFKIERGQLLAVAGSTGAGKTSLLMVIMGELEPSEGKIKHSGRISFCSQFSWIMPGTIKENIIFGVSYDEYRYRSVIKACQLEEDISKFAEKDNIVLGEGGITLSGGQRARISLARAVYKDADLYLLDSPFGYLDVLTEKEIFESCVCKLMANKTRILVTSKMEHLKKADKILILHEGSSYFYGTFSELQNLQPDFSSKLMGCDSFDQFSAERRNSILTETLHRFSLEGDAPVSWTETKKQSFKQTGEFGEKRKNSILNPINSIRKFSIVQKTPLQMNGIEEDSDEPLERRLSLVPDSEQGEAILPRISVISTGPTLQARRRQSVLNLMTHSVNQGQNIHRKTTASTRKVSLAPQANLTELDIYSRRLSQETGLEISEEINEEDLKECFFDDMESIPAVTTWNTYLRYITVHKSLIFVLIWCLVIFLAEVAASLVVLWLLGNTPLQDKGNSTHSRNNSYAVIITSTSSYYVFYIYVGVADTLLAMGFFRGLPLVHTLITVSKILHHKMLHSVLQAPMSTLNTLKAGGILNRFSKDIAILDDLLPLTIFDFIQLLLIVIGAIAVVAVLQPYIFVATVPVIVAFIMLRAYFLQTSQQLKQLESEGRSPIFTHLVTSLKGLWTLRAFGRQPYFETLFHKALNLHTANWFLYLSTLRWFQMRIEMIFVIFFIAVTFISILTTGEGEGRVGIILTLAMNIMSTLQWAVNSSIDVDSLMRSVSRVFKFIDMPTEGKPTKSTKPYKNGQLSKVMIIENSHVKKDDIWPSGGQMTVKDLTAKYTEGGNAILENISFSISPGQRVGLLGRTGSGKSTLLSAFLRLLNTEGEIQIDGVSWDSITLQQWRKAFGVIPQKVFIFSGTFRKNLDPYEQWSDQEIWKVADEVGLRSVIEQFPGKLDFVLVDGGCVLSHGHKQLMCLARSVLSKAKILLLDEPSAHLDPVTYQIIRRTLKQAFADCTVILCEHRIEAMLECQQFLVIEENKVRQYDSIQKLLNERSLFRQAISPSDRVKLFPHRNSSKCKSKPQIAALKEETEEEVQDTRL
The experiment in a line: IonWorks Quattro assay (CFTR Inhibitor Assay), whole-cell planar patch clamp. Type of assay: cell-based. The following applies: inward current (−100 mV); CHO cells stably expressing WT-CFTR; CFTR activated by 10 μM forskolin; test compound incubated 10 min. From the text: CFTR activity can be quantified by electrophysiology methods, using the whole-cell configuration of the patch clamp technique (Hamill O, Marty A, Neher E, Sakmann B and Sigworth F. ‘Improved patch-clamp techniques for high resolution current recording from cells and cell-free membrane patches.’ Pflugers Archive 1981 391: 85-100). This assay directly measures the currents associated with chloride flow through CFTR channels whilst either maintaining or adjusting the transmembrane voltage. This assay can use either single glass micropipettes or parallel planar arrays to measure CFTR activity from native or recombinant cell systems. Currents measured using parallel planar arrays can be quantified using an appropriately equipped instrument such as the IonWorks Quattro (Molecular Devices Corporation, Sunnyvale, Calif.). The Quattro system can measure CFTR currents from either a single cell per recording well (HT configuration) or alternatively from a population of 64 cells per well (Population Patch Clamp PPC) (Finkel A, Wittel A, Yang N, Handran S, Hughes J, Costantin J. ‘Population patch clamp improves data consistency and success rates in the measurement of ionic currents.’ J Biomol Screen. 2006 August; 11 (5):488-96).
Chinese hamster ovary (CHO) cells stably expressing WT-CFTR channels were used for the IonWorks Quattro experiments. Cells were maintained at 37° C. in 5% v/v CO2 at 100% humidity in MEM alpha medium supplemented with 10% (v/v) FCS, 100 U/mL Penicillin/Streptomycin, and 100 μg/L methotrexate. For experiments, cells were grown in 225 cm^2 tissue culture flasks until almost confluent. Cells were removed from the flask using trypsin-EDTA and resuspended in extracellular recording solution for immediate experimentation.
Cells, at a density of 1.5-2 million per mL, were placed on the Quattro system, added to the planar patch plate and seals allowed to establish for 5-10 mins. After assessing seal resistances (typically >50 MΩ), whole-cell access was obtained by perforation with 100 μg/mL amphotericin B. Baseline currents were measured by a pre-compound scan obtained by application of a voltage ramp from −100 to +100 mV. CFTR was activated by the addition of 10 μM forskolin to each of the 384 wells of the patch plate. After 5 min incubation the post-compound 1 currents were measured, again by application of a voltage ramp from −100 to +100 mV. Test compounds, diluted from 10 mM stocks in DMSO in extracellular solution were then added to the patch plate and were incubated for a further 10 min. The post-compound 2 currents were measured by the application of the same voltage ramp from −100 to +100 mV. The inhibition of CFTR was determined from the difference in current between the forskolin addition (post-compound 1) and the test compound (post-compound 2). This was determined at both −100 mV and +100 mV which represents the inward and outward current respectively.
Extracellular solution (ECS): 145 mM NaCl, 4 mM CsCl, 5 mM D-glucose, 10 mM TES, 1 mM CaCl2, 1 mM MgCl2, pH 7.4 NaOH
Intracellular solution (ICS): 113 mM L-Aspartic acid, 113 mM CsOH, 27 mM CsCl, 1 mM NaCl, 1 mM MgCl2, 1 mM EGTA, 10 mM TES. pH 7.2 with CsOH. Filter sterilized before use.
For orientation: Patch clamp records ionic current or voltage across a cell membrane.
`Cn1c(=O)c2c(-c3cccc(C#N)c3)n3c(c2n(C)c1=O)C(c1ccc(Cl)o1)SCC3` (single isomer, unassigned) [Example 3.5, 3-(10-(5-chlorofuran-2-yl)-1,3-dimethyl-2,4-dioxo-2,3,4,7,8,10-hexahydro-1H-pyrimido[4′,5′:3,4]pyrrolo[2,1-c][1,4]thiazin-5-yl)benzonitrile] had an IC50 of 0.16 µM.

For `CCn1c(=O)c2c(-c3ccccc3)n3c(c2n(CC)c1=O)C(c1ccc(Cl)o1)SCC3` (single isomer, unassigned) [Example 4.2, 10-(5-Chlorofuran-2-yl)-1,3-diethyl-5-phenyl-7,8-dihydro-1H-pyrimido[4′,5′:3,4]pyrrolo[2,1-c][1,4]thiazine-2,4(3H,10H)-dione], the IC50 stood at 1.67 µM.

In the case of `Cc1ccc([C@@H]2C[C@H](C)Cn3c(-c4cccc(F)c4)c4c(=O)n(C)c(=O)n(C)c4c32)o1` (single isomer, unassigned) [Example 7.5b, 5-(3-fluorophenyl)-1,3,8-trimethyl-10-(5-methylfuran-2-yl)-7,8,9,10-tetrahydropyrimido[4,5-a]indolizine-2,4(1H,3H)-dione], half-maximal inhibition (IC50) was put at 2.18 µM.

`Cc1cccc(-c2c3c(=O)n(C)c(=O)n(C)c3c3n2CCCC3c2nc(C)cs2)c1` (single isomer, unassigned) [Example 8.2, 1,3-dimethyl-10-(4-methylthiazol-2-yl)-5-m-tolyl-7,8,9,10-tetrahydropyrimido[4,5-a]indolizine-2,4(1H,3H)-dione] returned an IC50 of 0.29 µM.

For `Cc1csc(C2CCCn3c(-c4cccc(C#N)c4)c4c(=O)n(C)c(=O)n(C)c4c32)n1` (single isomer, unassigned) [Example 9.1, 3-(1,3-dimethyl-10-(4-methylthiazol-2-yl)-2,4-dioxo-1,2,3,4,7,8,9,10-octahydropyrimido[4,5-a]indolizin-5-yl)benzonitrile], the midpoint of inhibition, the IC50, lay at 0.29 µM.

In turn, `Cn1c(=O)c2c(-c3cccc(F)c3)n3c(c2n(C)c1=O)[C@H](c1ccc(Cl)o1)S[C@@H](CO)C3` (single isomer, unassigned) [Example 12.1b, 10-(5-chlorofuran-2-yl)-5-(3-fluorophenyl)-8-(hydroxymethyl)-1,3-dimethyl-7,8-dihydro-1H-pyrimido[4′,5′:3,4]pyrrolo[2,1-c][1,4]thiazine-2,4(3H,10H)-dione] returned an IC50 of 0.18 µM.

On to `Cn1c(=O)c2c(-c3ccccc3)n3c(c2n(C)c1=O)C(c1ccc(Cl)o1)SC(CO)C3` (single isomer, unassigned) [Example 12.a, 10-(5-chlorofuran-2-yl)-8-(hydroxymethyl)-1,3-dimethyl-5-phenyl-7,8-dihydro-1H-pyrimido[4′,5′:3,4]pyrrolo[2,1-c][1,4]thiazine-2,4(3H,10H)-dione], for which half-maximal inhibition (IC50) was put at 0.2 µM.

For the compound `Cn1c(=O)c2c(-c3ccccc3)n3c(c2n(C)c1=O)C(c1ccc(Cl)o1)SC(CO)C3` (single isomer, unassigned) [Example 12.b, 10-(5-chlorofuran-2-yl)-8-(hydroxymethyl)-1,3-dimethyl-5-phenyl-7,8-dihydro-1H-pyrimido[4′,5′:3,4]pyrrolo[2,1-c][1,4]thiazine-2,4(3H,10H)-dione], the IC50 was determined as 0.54 µM.

Regarding `Cn1c(=O)c2c(-c3nc(CO)cs3)n3c(c2n(C)c1=O)C(c1nc(Cl)cs1)CCC3` (single isomer, unassigned) [Example 13.1a, 10-(4-chlorothiazol-2-yl)-5-(4-(hydroxymethyl)thiazol-2-yl)-1,3-dimethyl-7,8,9,10-tetrahydropyrimido[4,5-a]indolizine-2,4(1H,3H)-dione], half-maximal inhibition (IC50) required 0.1 µM.

In turn, `Cc1nc(-c2c3c(=O)n(C)c(=O)n(C)c3c3n2CCC[C@H]3c2nc(Cl)cs2)cs1` (single isomer, unassigned) [Example 13.3a, 10-(4-chlorothiazol-2-yl)-1,3-dimethyl-5-(2-methylthiazol-4-yl)-7,8,9,10-tetrahydropyrimido[4,5-a]indolizine-2,4(1H,3H)-dione] showed an IC50 of 0.09 µM.

The compound `CN(C)C[C@@H]1Cn2c(-c3ccccc3)c3c(=O)n(C)c(=O)n(C)c3c2[C@@H](c2ccc(Cl)o2)S1` (single isomer, unassigned) [Example 14a, 10-(5-chlorofuran-2-yl)-8-((dimethylamino)methyl)-1,3-dimethyl-5-phenyl-7,8-dihydro-1H-pyrimido[4′,5′:3,4]pyrrolo[2,1-c][1,4]thiazine-2,4(3H,10H)-dione] displayed an IC50 of 0.31 µM.

Take `Cn1c(=O)c2c(-c3nc(CO)cs3)n3c(c2n(C)c1=O)[C@H](c1ccc(Cl)o1)SCC3` (single isomer, unassigned) [Example 15, 10-(5-Chlorofuran-2-yl)-5-(4-(hydroxymethyl)thiazol-2-yl)-1,3-dimethyl-7,8-dihydro-1H-pyrimido[4′,5′:3,4]pyrrolo[2,1-c][1,4]thiazine-2,4(3H,10H)-dione]: it took 0.1 µM to reach half-maximal inhibition (IC50). Against the preceding compound, the IC50 is about 3.1-fold lower.

In turn, `Cn1ccc(-c2c3c(=O)n(C)c(=O)n(C)c3c3n2CCSC3c2ccc(Cl)o2)n1` (single isomer, unassigned) [Example 15.11, 10-(5-Chlorofuran-2-yl)-1,3-dimethyl-5-(1-methyl-1H-pyrazol-3-yl)-7,8-dihydro-1H-pyrimido[4′,5′:3,4]pyrrolo[2,1-c][1,4]thiazine-2,4(3H,10H)-dione] registered an IC50 of 0.13 µM.

The compound `CCOc1cccc(-c2c3c(=O)n(C)c(=O)n(C)c3c3n2CCSC3c2ccc(Cl)o2)c1` (single isomer, unassigned) [Example 15.12, 10-(5-Chlorofuran-2-yl)-5-(3-ethoxyphenyl)-1,3-dimethyl-7,8-dihydro-1H-pyrimido[4′,5′:3,4]pyrrolo[2,1-c][1,4]thiazine-2,4(3H,10H)-dione] returned an IC50 of 9.27 µM.

In the case of `COc1cccc(-c2c3c(=O)n(C)c(=O)n(C)c3c3n2CCSC3c2ccc(Cl)o2)c1` (single isomer, unassigned) [Example 15.13, 10-(5-Chlorofuran-2-yl)-5-(3-methoxyphenyl)-1,3-dimethyl-7,8-dihydro-1H-pyrimido[4′,5′:3,4]pyrrolo[2,1-c][1,4]thiazine-2,4(3H,10H)-dione], the IC50 turned out to be 0.62 µM.

Consider `Cc1csc(-c2c3c(=O)n(C)c(=O)n(C)c3c3n2C[C@H](CO)S[C@H]3c2ccc(Cl)o2)n1` (single isomer, unassigned) [Example 17, 10-(5-chlorofuran-2-yl)-8-(hydroxymethyl)-1,3-dimethyl-5-(4-methylthiazol-2-yl)-7,8-dihydro-1H-pyrimido[4′,5′:3,4]pyrrolo[2,1-c][1,4]thiazine-2,4(3H,10H)-dione], for which the IC50 is 0.1 µM.

`Cn1ccc(-c2c3c(=O)n(C)c(=O)n(C)c3c3n2C[C@H](CO)S[C@H]3c2ccc(Cl)o2)n1` (single isomer, unassigned) [Example 17.1, 10-(5-Chlorofuran-2-yl)-8-(hydroxymethyl)-1,3-dimethyl-5-(1-methyl-1H-pyrazol-3-yl)-7,8-dihydro-1H-pyrimido[4′,5′:3,4]pyrrolo[2,1-c][1,4]thiazine-2,4(3H,10H)-dione]: the IC50 was 0.23 µM.

On to `Cc1nc(-c2c3c(=O)n(C)c(=O)n(C)c3c3n2C[C@H](CO)S[C@H]3c2ccc(Cl)o2)cs1` (single isomer, unassigned) [Example 17.2, 10-(5-Chlorofuran-2-yl)-8-(hydroxymethyl)-1,3-dimethyl-5-(2-methylthiazol-4-yl)-7,8-dihydro-1H-pyrimido[4′,5′:3,4]pyrrolo[2,1-c][1,4]thiazine-2,4(3H,10H)-dione], for which half-maximal inhibition (IC50) required 0.24 µM.

`Cc1csc(-c2c3c(=O)n(C)c(=O)n(C)c3c3n2C[C@H](CN)S[C@H]3c2ccc(Cl)o2)n1` (single isomer, unassigned) [Example 19, 8-(aminomethyl)-10-(5-chlorofuran-2-yl)-1,3-dimethyl-5-(4-methylthiazol-2-yl)-7,8-dihydro-1H-pyrimido[4′,5′:3,4]pyrrolo[2,1-c][1,4]thiazine-2,4(3H,10H)-dione] yielded an IC50 of 5.38 µM. Against the preceding compound, the IC50 is about 22-fold higher.
